Measurements reported in publication PMC7215935, “GM1 Oligosaccharide Crosses the Human Blood–Brain Barrier In Vitro by a Paracellular Route” (International Journal of Molecular Sciences, 2020).

Legend:
[1] = Inverse transport (basolateral to apical, B → A) across hBLECs and efflux ratio; type: in vitro ADME, human; details: human, pH 7.4; 50 μM in basolateral compartment, 60 min (Figure 7)
Method: For the inverse transport study (related to basolateral → apical flux, B → A), 1.5 mL of 1 × 10^6 dpm of tritiated [^3H]OligoGM1 plus 50 μM OligoGM1 in RH buffer were added to an empty well of a 12-well plate (Figure S3c). Every 20 min up to 60 min, the hBLEC filter filled with 0.5 mL RH buffer was removed and replaced with a new filter with fresh RH buffer.
The apparent permeability, efflux ratio, and endothelial permeability were calculated to estimate the absorption processes of drugs, to predict implication of active transport in the process of drugs absorption, and to more accurately appreciate the transport of a drug across an endothelial barrier, respectively. Detailed information on the equations used to calculate the permeability parameters are reported in the Supplementary Information. […]
where (∆Q/∆t) (μmol/sec) is the rate of permeation (quantity per second) of a molecule across the cell layer, C0 (μmol/cm3) is the donor compartment concentration at time zero and S (cm2) is the area of […]
In the transwell insert system there are two compartments and, analyzing the absorption of a substance, the apparent permeability index can be obtained for the apical to basolateral transport, Papp A → B, and for the inverse, basolateral to apical transport Papp B → A.
To define Papp (1), the Fick's law could be used, which describes the transport of substances through a semipermeable membrane. Given that the initial concentration of the solute in the donor compartment is much higher than the one in the receiver compartment (equal to 0 at t0), and assuming that the solute equally partitions in the two compartments, for small variation of C0, it is possible to integrate and simplify the Fick’s equation to obtain as follows: […]
where ∆Q/∆t corresponds to the amount of solute that crosses the membrane over time, D is the diffusion coefficient of the substance in water, S is the membrane surface, h its thickness and C0 is the concentration of the solute which approximates the initial concentration C0.
The equation (2) can be rewritten as: […]

N2a cells = assay: N2a differentiation by hBLEC-crossed OligoGM1 (morphology); type: cell-based, mouse; details: basolateral solution (~25 μM), 24 h
Method: For differentiation experiments, N2a cells were seeded at 5 × 10^3/cm^2 and incubated for 24 h in regular culture condition to allow cell attachment. Before all treatments, growth medium was removed and cells were adapted for 30 min in pre-warmed (37 °C) Transfectagro medium containing 2% heat-inactivated FBS, 1% L-glutamine, and 1% penicillin/streptomycin solution. All treatments were conducted at 37 °C in a humidified atmosphere of 95% air/5% CO2.
Precisely, [^3H]OligoGM1 (1 × 10^6 dpm) diluted into cold OligoGM1 solution (300 µM) was administered for 240 min to hBLECs in the upper compartment so that at a volume of 0.5 mL there was 150 nmol of OligoGM1. […] After the 240 min incubation period, the basolateral solution was screened to find the quantity of crossed OligoGM1 by measuring ^3H-radioactivity and was then administered to N2a cells for 24 h. […] Morphological signals of neurodifferentiation were evaluated by cell observation and TrkA-ERK1/2 pathway activation was verified by immunoblotting (for procedural details see Supplementary Materials and [22, 23]). […]
Since mycoplasma could infect of Caco-2 cells, we validated the absence of any contamination by two methods (data not shown). […] Briefly culture supernatants were mixed with MycoAlert reagents according to manufacturer instruction and the luminescence was measured after 10 min using fluorimeter (BioTek, H1, Vermont, Winooski). […]

P-gp/BCRP = assay: ABC transporter competition assay (Caco-2 pump out), R123 efflux; details: Caco-2 cells, 10, 50 and 100 μM, vs control
Method: Briefly, Caco-2 cells in 96-well plates were washed once with RH buffer and incubated for 120 min with 10 µM R123 or for 15 min with 0.5 µM CMFDA. R123 and CMFD are substrates for the major efflux pumps expressed by BBB and intestine cells, i.e., P-gp/BCRP and MRPs, respectively. After the incubation period, Caco-2 cells were washed twice with RH buffer with or without test compounds (OligoGM1 at 10, 50, and 100 µM). The rate out (Kout) of Caco-2 cells for fluorescent dyes was monitored by fluorescence measurement (λex = 501 nm and λem = 538 nm for R123; λex = 485 nm and λem = 538 nm for CMFDA) using a microplate fluorescent reader (BioTek, H1, Vermont, Winooski). The amount of dye expelled from the cells was measured at 37 °C and every 5 min for one hour for R123 and every 2 min for 30 min for CMFDA. The rate out of the dye from cells was calculated as the slope of the curve of the cumulative amount of dye against the time (Kout = ∆pmol⁄∆t) and compared with the value in the presence of test compounds.

SMILES: CC(=O)NC1C(O)CC(OC2C(O)C(OC3C(CO)OC(O)C(O)C3O)OC(CO)C2OC2OC(CO)C(O)C(OC3OC(CO)C(O)C(O)C3O)C2NC(C)=O)(C(=O)O)OC1C(O)C(O)CO (stereo not drawn) [OligoGM1, β-Gal-(1-3)-β-GalNAc-(1-4)-[α-Neu5Ac-(2-3)]-β-Gal-(1-4)-β-Glc]
- Papp B→A at 60 min, 50 μM [1]: 8.7 ± 1.4 ×10⁻⁶ cm/s
- N2a cell morphology / neurite sprouting (N2a cells): induced a neuron-like morphology
- effect on efflux (Kout) of R123 (P-gp/BCRP): did not identify any difference
